Tests used:
5×FAD transgenic mice = experiment: 5×FAD transgenic mouse model of Alzheimer's Disease (Example 15); format: in vivo
Experimental: All animal experiments were conducted in strict accordance with the Australian Code of Practice for the Care and Use of Animals for Scientific Purposes. Local approval was obtained from The University of Queensland's Animal Ethics Committee. All wild-type (WT) and transgenic mice (5×FAD tg) used were from the same litters to act as appropriate littermate controls. Thirty-four 2.5-3-month-old female and twenty-five 2.5-3-month-old male mice were used in this study. Animals were housed in groups of 3-5 animals per cage and maintained on a 12 hr light-dark cycle. Food and water were provided ad libitum.
All testing was conducted between 8 AM-6 PM, at approximately the same time each day. Prior to commencing any behavioural testing, mice were habituated to handling and handler smell to minimize handling-related stress. Each mouse was handled daily by the experimenter conducting the behavioural tasks for 30-s to 1-min each day. Handling involved picking up the mouse (by the base of the tail) from the home cage and placing in the palm of a gloved hand. This process was repeated daily, at approximately the same time each day, for a total of 8 days prior to testing. The bedding of the animals' home cage was not changed 2-days prior habituation to handling and for the duration of the behavioural tests. […]
The Active Place Avoidance (APA) task assessing longer-term spatial learning and memory was conducted on all mice as previously described (Willis E F, Bartlett P F, Vukovic J. Protocol for Short- and Longer-term Spatial Learning and Memory in Mice. Front Behav Neurosci. 2017; 11:197. https://doi:10.3389/fnbeh.2017.00197). The APA arena (Bio-Signal Group, NY, USA) consisted of a 77 cm diameter metal grid floor fenced by a 32 cm high Perspex clear circular boundary. The elevated arena sits directly below a digital video camera (Point Gray, USA) and in the middle of the room with visual cues placed on all 4 of the room walls. The visual cues consisted of black and white symbols printed on A3-sized paper. Visual cues were randomly chosen and kept constant for the 5-days of testing, and a different set of visual cues were used for post-2A treatment testing. Room lighting was set at 62-63% white light and light intensity recordings were taken by placing the luxmeter in the centre of the arena before the start of each session and kept between 60-70 lux.
The arena was set to rotate clockwise (1 rpm). The shock zone where a brief electric shock (500 ms, 0.5 mA, track-dependent) is delivered through the grid floor, is set at a 270° (pre-2A treatment) or 90° (post-2A treatment) angle and width of 60°. […] Mice were to actively avoid this shock zone while the arena rotates clockwise.
The position of the mouse in the arena was tracked using an overhead camera linked to Tracker software (Bio-Signal Group). When the centre-point of the mouse entered the shock zone, as tracked by the overhead camera linked to the tracking software, it received an electric shock. During the trials, the researcher sat quietly behind a curtain, out of view of the arena. After the completion of a trial, each mouse was returned to the home cage and the metal grid, clear Perspex boundary and underlying floor were cleaned with 70% ethanol. All scat and urine were removed following the completion of the trial.
Peptide of SEQ ID NO. 2 was dissolved in dimethyl sulfoxide (DMSO), and subsequently diluted in Dulbecco's phosphate-buffered saline (DPBS; 10% DMSO final). Pre-treatment open field/activity monitor data was used as the pseudorandomisation parameter for assigning animals to treatment groups. At 12-14 weeks, male and female 5×FAD and WT littermates were intranasally administered either 10% DMSO in DPBS as vehicle treatment or SEQ ID NO. 2 in DPBS (1 mg/kg). Treatment commenced immediately after the completion of pre-treatment behavioural testing and was administered every other day for 1 month. Body weight was measured every second day prior to intranasal dosing. […]

EA.hy926 cells = experiment: Peptide stability study in EA.hy926 endothelial cells, LCMS (Example 4); format: in vitro ADME; details: peptide 9 μM, Opti-MEM
Experimental: SEQ ID NO:2 was prepared as a C-terminal amidated analogue of SEQ ID NO:1. The stability of SEQ ID NO:1 and SEQ ID NO:2 was assessed in HEK293 and EA.hy926 cells grown in culture and their break down was monitored by LCMS over 60 min using the following procedure.
HEK293 (passage 24) or Ea.hy926 (passage 37) were seeded into tissue-culture-grade 96-well plates at a density of 20,000 cells/well. After 24 hr, cells were washed with PBS and replaced with Opti-MEM reduced serum media containing SEQ ID NO:1 or SEQ ID NO:2 (9 μM). Aliquots of equal volume were taken at T=0 and 60 min. SEQ ID NO:2 was added to control wells having media (no cells) only. Samples were immediately acidified in 0.1% TFA, snap frozen in dry ice and stored in −80° C. until analysed by LCMS.
Samples were analyzed by LC-MS/MS on a Shimadzu Nexera uHPLC (Japan) coupled to a Triple Tof 5600 mass spectrometer (ABSCIEX, Canada) equipped with a duo electrospray ion source. One μL of each extract was injected onto a 2.1 mm×100 mm Zorbax C18 1.8 um column (Agilent) at 200 μL/min. […] SEQ ID NO:1 and SEQ ID NO:2 were quantified using the […] doubly charged molecular ion from m/z 510.270 to 510.325. The data was acquired using Analyst TF 1.6 and quantification was carried out using MultiQuant 2.1.1 software (ABSCIEX, Canada).

In the case of “H-SLFELGKMIL-NH2 [SEQ ID NO:2, H2N-SLFELGKMIL-NH2]”, the “active place avoidance behaviour, 5-day post-treatment performance” value (5×FAD transgenic mice; Tg mice, peptide versus vehicle) is reported as “improved avoidance behavior”, the “IL-6 protein level in the cortex compared to Tg mice treated with vehicle” value (5×FAD transgenic mice; Tg mice, western blotting) is reported as “reduction” and the “TNF-α protein level in the cortex compared to Tg mice treated with vehicle” value (5×FAD transgenic mice; Tg mice, western blotting) is reported as “reduction”. The “number of shocks in the APA task at day 5 of testing, post-treatment versus pre-treatment” value (5×FAD transgenic mice; WT or Tg mice treated with peptide) was “significantly more”, the “frequency of entry to the novel arm in y-maze test, as % of entries to all other arms, pre-treatment compared with post-treatment” value (5×FAD transgenic mice; between groups) was “did not show significant difference” and the “number of shocks received post-treatment” value (5×FAD transgenic mice; between groups) was “not significantly different”. For the same substance, the “time in the centre in the open field/activity test” value (5×FAD transgenic mice; each group of mice, pre- versus post-treatment) was “not significantly different” and the “relative amount remaining in the medium of endothelial cells at 60 min” value (EA.hy926 cells) was 26%±5%.
